What was measured:
H3K79 methylation = test: Total H3K79me2 levels in fibroblasts by western blotting; assay type: cell-based, human; settings: 1 uM to 10 uM concentration range, fibroblasts treated 5 days
From the text: In addition to the shRNA mediated knockdown of Dot1L, a small molecule inhibitor of Dot1L catalytic activity was used to further validate the findings^15. […] Data correspond to the average and s.d.; n=3. *P<0.001 compared untreated fibroblasts.

dH1f cells = test: Reprogramming assay, Tra-1-60+ iPSC colonies from dH1f fibroblasts; assay type: cell-based, human
Method: dH1f cells were first infected with shRNA viruses at high MOI to ensure all cells received at least one vector (Gauged by puromycin resistance of parallel infected wells). 25,000 shRNA-infected dH1f cells were then plated per well in 12-well plates and infected overnight with either retroviral (MOI 2.5) 7 or lentiviral (Addgene #21162, 21164; 100-200 μl supernatant)29 reprogramming factors. For 2-factor reprogramming, Oct4 and Sox2 viruses were used at an MOI of 5. 6 days later, cells were trypsinized and re-plated 1:4 to 1:6 onto 6-well plates. Medium was changed to hES medium daily until Day 21 when plates were fixed. Small molecule inhibitor of Dot1L, EPZ004777 (a gift from Epizyme, Inc., Cambridge, Mass.) was dissolved in DMSO as a 10 mM stock and was added at the indicated concentrations. For Dot1L rescue experiments, an MSCV-based retroviral vector encoding human Dot1L with or without mutations in the SAM binding site (gifts of Y. Zhang) were mutagenized at the shRNA target site using QuikChange II XL Site-Directed Mutagenesis Kit (Agilent Technologies). In certain experiments, Nanog and Lin28 expression was achieved using lentivirus (Addgene #21163). IMR-90 and MRC5 human diploid fibroblasts were purchased from ATCC and 50000 cells were used in reprogramming experiments. Statistical analysis was performed using a Student's t-test.
Immunostaining of reprogramming plates were performed as described^8. Briefly, cells were fixed with 4% p-formaldehyde and stained with biotin-anti-Tra-1-60 (eBioscience, #13-8863-82, 1:250) and streptavidin horseradish peroxidase (Biolegend, #405210, 1:500) diluted in PBS (3%), FCS (0.3%) Triton X-100. Staining was developed with the Vector labs DAB kit (#SK-4100), and iPSC colonies quantified with ImageJ software. For the characterization of shDot1l-iPS cells, single colonies were put onto MEF coated 96-well plates. The plates were fixed for 20 min with 4% p-formaldehyde/PBS (+/+), washed several times with PBS (+/+) and incubated overnight at 4° C. with primary antibody and Hoechst diluted in 3% donkey serum/3% BSA Fraction VII/0.01% Triton X-100/PBS (+/+); Hoechst, Invitrogen #H3570 (1:20,000), Tra-1-81/A488 (BD #560174), SSEA-4/A647 (BD #560219), Tra-1-60/A647 (BD #560122), Nanog, rabbit polyclonal (Abcam #ab21624), Oct4, rabbit polyclonal (Abcam #ab19857). For Nanog and Oct4, donkey anti-rabbit IgG/A555 (Molecular Probes #A31572) secondary antibody was used. After several washes with PBS (+/+), images were acquired using a BD Pathway 435 imager equipped with a ×10 objective.

Oct4-GFP MEFs = test: Reprogramming of OSKM transduced Oct4-GFP MEFs, AP+ colonies; assay type: cell-based, mouse; settings: iDot1L 10 um
Method: It was assessed whether these observations can be extended to the murine system. It was observed that, similar to human fibroblasts, iDot1L treatment led to 3-fold enhancement of reprogramming of Oct4-GFP MEFs (FIG. 3D). […] Data correspond to the average and s.d.; n=4. *P<0.001 compared untreated MEFs. Representative AP-stained wells and GFP-positive iPS colonies derived from each condition are shown in the lower panel.

[1] = tested on: iPS-derived secondary MEFs; test: Reprogramming of inducible iPS-derived secondary MEFs, AP+ colonies; assay type: cell-based, mouse; settings: doxycycline, iDot1L 10 um
H3K79me2 = test: ChIP-seq for H3K79me2 on OSKM expressing fibroblasts; assay type: cell-based, human; settings: iDot1L 10 uM; 6 days after OSKM
Method: ChIP-seq was performed as described with slight modifications^25. 300 000 cells were fixed at room temperature in PBS 1% formalin (v/v) for 10 minutes with gentle agitations. Fixation was stopped by the addition of glycine (125 mM final concentration) and agitation for 5 min at room temperature. Fixed cells were washed twice in ice-cold PBS, resuspended in 100 ul of SDS lysis buffer (1% SDS, 10 mM EDTA, 50 mM Tris-HCl, pH 8.1). Chromatin was sheared by sonication to about 100-500 bp fragments using bioruptor (diagenode, Denville, N.J.) and diluted tenfold with dilution buffer (0.01% SDS, 1.1% Triton-X100, 1.2 mM EDTA, 16.7 mM Tris-HCl, pH 8.1, 167 mM NaCl). Antibodies against specific histone modifications was added to sonicated chromatin solution and incubated at 4 degree overnight with gentle agitation. The antibodies used were anti-H3K27me3 (Millipore 07-449) and anti-H3K79me2 (abcam 3594). Immune complexes were collected by incubation with 20 ul of Protein A/G agarose beads (Millipore) for an hour at 4 degree with gentle agitation. […]

[2] = iDot1L 10 uM, OSKM, Tra-1-60+ colonies at 21 days

SMILES: CC(C)N(CCCNC(=O)Nc1ccc(C(C)(C)C)cc1)C[C@H]1O[C@@H](n2ccc3c(N)ncnc32)[C@H](O)[C@@H]1O.Cl [EPZ004777]
- H3K79 methylation (H3K79 methylation): abrogated H3K79 methylation robustly
- enhancement of reprogramming of human fibroblasts (dH1f cells; OSKM, dH1f cells treated for 21 days, relative to untreated): 3-4 fold
- reprogramming efficiency, inhibitor combined with Dot1L knockdown (dH1f cells; iDot1L 10 uM plus Dot1L shRNA, OSKM, 21 days): did not result in a further increase of reprogramming efficiency
- reprogramming, pretreatment for 5 days prior to OSKM transduction (dH1f cells; [2]): no effect
- reprogramming, treatment in the first or the second week (dH1f cells; [2]): sufficient to enhance reprogramming
- reprogramming in the absence of Klf4, c-Myc or both (dH1f cells; iDot1L 10 uM, Tra-1-60 staining 21 days after reprogramming): allowed reprogramming in the absence of either Klf4 or Myc and was able to replace both of these exogenous factors
- enhancement of reprogramming of Oct4-GFP MEFs (Oct4-GFP MEFs): 3 fold
- reprogramming efficiency of secondary MEFs [1]: increased reprogramming efficiency
- K79me2 levels on genes (H3K79me2): reduced on almost all genes

From patent publication US9670463B2, “Inhibition and enhancement of reprogramming by chromatin modifying enzymes” (Children's Medical Center Corporation, priority 2011, dated 2017)
